Assay results published in patent US20240174618A1, “SUBSTITUTED (2-HETEROARYLOXYPHENYL)SULFONATES, SALTS THEREOF AND THEIR USE AS HERBICIDAL AGENTS” (Bayer Aktiengesellschaft, priority 2021, published 2024).

What was measured:
Type in all cases: in vivo
Zea mays (ZEAMX) = assay: F. Post-emergence effect on useful plants, ZEAMX; details: useful plant
Method: (§1) Seeds of monocotyledonous and dicotyledonous weeds and crop plants were placed in sandy loam in plastic or organic planting pots, covered with soil and cultivated in a greenhouse under controlled growth conditions. 2 to 3 weeks after sowing, the test plants were treated at the one-leaf stage. The compounds of the invention, formulated in the form of wettable powders (WP) or as emulsion concentrates (EC), were then sprayed onto the green parts of the plants as aqueous suspension or emulsion with addition of 0.5% additive at a water application rate of 600 l/ha (converted). After the test plants had been kept in the greenhouse under optimum growth conditions for about 3 weeks, the activity of the preparations was rated visually in comparison to untreated controls.
(§2) For example, • 100% efficacy=plants have died, • 0% action=like untreated control plants.
Tables F1a to F4 below show the effects of selected compounds of the general formula (I) according to table 1 on various useful plants at an application rate corresponding to 320 g/ha or less, which were obtained by the experimental procedure mentioned above.

Avena fatua (AVEFA) = assay: C. Herbicidal pre-emergence efficacy, AVEFA; details: 320 g/ha, scored after about 3 weeks
Excerpt: Seeds of monocotyledonous and dicotyledonous weed plants and crop plants were placed in plastic or organic planting pots and covered with soil. The compounds of the invention, formulated in the form of wettable powders (WP) or as emulsion concentrates (EC), were then applied to the surface of the covering soil as aqueous suspension or emulsion with addition of 0.5% additive at a water application rate equivalent to 600 l/ha (converted). After the treatment, the pots were placed in a greenhouse and kept under good growth conditions for the test plants. After about 3 weeks, the efficacy of the preparations was scored visually in comparison with untreated controls as percentages. For example, • 100% efficacy=plants have died, • 0% efficacy=like untreated control plants.
Tables C1a to C14b below show the effects of selected compounds of the general formula (I) according to table 1 on various harmful plants at an application rate corresponding to 320 g/ha or less, which were obtained by the experimental procedure mentioned above.

Lolium rigidum (LOLRI) = assay: E. Herbicidal post-emergence efficacy, LOLRI
Method: as §1, §2
Tables E1a to E12b below show the effects of selected compounds of the general formula (I) according to table 1 on various harmful plants at an application rate corresponding to 320 g/ha or less, which were obtained by the experimental procedure mentioned above.

[1] = tested on: Matricaria inodora (MATIN); assay: B. Herbicidal post-emergence efficacy, MATIN
Method: Seeds of mono- and dicotyledonous weed plants were placed in plastic pots in sandy loam soil (doubly sown with in each case one species of mono- or dicotyledonous weed plants per pot), covered with soil and cultivated in a greenhouse under controlled growth conditions. 2 to 3 weeks after sowing, the test plants were treated at the one-leaf stage. The compounds of the invention, formulated in the form of wettable powders (WP) or as emulsion concentrates (EC), were applied onto the green parts of the plants as aqueous suspension or emulsion with addition of 0.5% additive at a water application rate of 600 liters per hectare (converted). After the test plants had been kept in the greenhouse under optimum growth conditions for about 3 weeks, the activity of the preparations was rated visually in comparison to untreated controls.
For example, • 100% efficacy=plants have died, • 0% efficacy=like untreated control plants
Tables B1a to B12c below show the effects of selected inventive compounds of the general formula (I) according to table 1 on various harmful plants at an application rate corresponding to 1280 g/ha or less, which were obtained by the experimental procedure mentioned above.

Glycine max (GLXMA) = assay: D. Pre-emergence effect on useful plants, GLXMA; details: useful plant, application rate 80 g/ha
Method in brief: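 Seeds sown in pots and covered with soil; WP or EC formulations sprayed on the soil surface as aqueous suspension/emulsion with 0.5% additive at 600 l/ha water. Plants grown in greenhouse; crop damage scored visually after about 3 weeks as % versus untreated controls (100% = dead, 0% = like control).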

SMILES	Post-emergence efficacy against ZEAMX in % (Zea mays (ZEAMX); application rate 80 g/ha) [%]	Pre-emergence efficacy against AVEFA (Avena fatua (AVEFA)) [%]	Post-emergence efficacy against LOLRI in % (Lolium rigidum (LOLRI); application rate 320 g/ha) [%]	also measured
O=S(=O)(CCCC(F)(F)F)Oc1c(Cl)cccc1Oc1ncc(Cl)cn1 [Example I-39]	20	–	–	–
O=S(=O)(CCC(F)(F)F)Oc1c(F)cccc1Oc1ncc(Br)cn1 [Example I-40]	–	100	–	–
O=S(=O)(CCCC(F)(F)F)Oc1c(F)cccc1Oc1ncc(Br)cn1 [Example I-41]	0	–	–	Post-emergence efficacy against ZEAMX in % (Zea mays (ZEAMX); application rate 320 g/ha): 20%
O=S(=O)(CCCC(F)(F)F)Oc1c(F)cccc1Oc1ncc(F)cn1 [Example I-42]	–	100	100	Post-emergence efficacy against LOLRI in % (Lolium rigidum (LOLRI); application rate 80 g/ha): 80%
O=S(=O)(CCC(F)(F)F)Oc1c(F)cccc1Oc1ncc(F)cn1 [Example I-47]	–	100	100	–
O=S(=O)(CCCC(F)(F)F)Oc1c(F)cccc1Oc1ncc(Cl)cn1 [Example I-49]	–	–	80	–
C=CCCS(=O)(=O)Oc1c(F)cccc1Oc1ncc(Cl)cn1 [Example I-50]	–	–	–	Post-emergence efficacy against MATIN ([1]; 1280 g/ha): 90%
O=S(=O)(CC1CC(F)(F)C1)Oc1c(F)cccc1Oc1ncc(Cl)cn1 [Example I-53]	–	80	100	Post-emergence efficacy against LOLRI in % (Lolium rigidum (LOLRI); application rate 80 g/ha): 80%
O=S(=O)(CCC1CC1)Oc1c(F)cccc1Oc1ncc(Cl)cn1 [Example I-55]	–	–	80	Pre-emergence efficacy against GLXMA in % (Glycine max (GLXMA)): 10%
O=S(=O)(CCCC(F)(F)C(F)(F)F)Oc1c(F)cccc1Oc1ncc(Cl)cn1 [Example I-68]	–	–	–	Pre-emergence efficacy against GLXMA in % (Glycine max (GLXMA)): 10%
N#Cc1cccc(Oc2ncc(Cl)cn2)c1OS(=O)(=O)CCCC(F)(F)F [Example I-81]	–	–	80	Pre-emergence efficacy against GLXMA in % (Glycine max (GLXMA)): 0%

Continued, in another order:

Post-emergence efficacy against ZEAMX in % (Zea mays (ZEAMX); application rate 80 g/ha) [%]	SMILES	Pre-emergence efficacy against AVEFA (Avena fatua (AVEFA)) [%]	Post-emergence efficacy against LOLRI in % (Lolium rigidum (LOLRI); application rate 320 g/ha) [%]	also measured
0	O=S(=O)(CCC(F)(F)F)Oc1c(Br)cccc1Oc1ncc(F)cn1 [Example I-43]	–	–	Post-emergence efficacy against ZEAMX in % (Zea mays (ZEAMX); application rate 320 g/ha): 0%
0	O=S(=O)(CCC(F)(F)F)Oc1c(F)cccc1Oc1ncc(Cl)cn1 [Example I-48]	100	90	–
0	COCCS(=O)(=O)Oc1c(F)cccc1Oc1ncc(Cl)cn1 [Example I-52]	–	–	Post-emergence efficacy against ZEAMX in % (Zea mays (ZEAMX); application rate 320 g/ha): 0%
20	O=S(=O)(CCCC(F)F)Oc1c(F)cccc1Oc1ncc(Cl)cn1 [Example I-56]	80	–	Post-emergence efficacy against MATIN ([1]; 320 g/ha): 90%; Post-emergence efficacy against MATIN ([1]; 1280 g/ha): 90%
20	O=S(=O)(CCC(F)=C(F)F)Oc1c(F)cccc1Oc1ncc(Cl)cn1 [Example I-70]	–	–	–
20	O=S(=O)(CCC(F)=C(F)F)Oc1c(Cl)cccc1Oc1ncc(Cl)cn1 [Example I-73]	–	–	–
0	Cc1cccc(Oc2ncc(Cl)cn2)c1OS(=O)(=O)CC1CC(F)(F)C1 [Example I-74]	–	–	–
